In brackets after ≈: the same amount, converted by molar mass. Several values for one entry are separate records, joined by “and”; a condition that tells them apart may be missing. Identical values can stand only once. Like-named read-outs stand apart in the source and are kept apart here.
What was measured:
Candida albicans [1] = assay: MIC testing (CLSI M27-A3); type: cell-based; design: MIC: unit not given beside the values; conditions: for MIC Range: in µg/mL; for MIC50: inhibits 50% of strains; for MIC90: inhibits 90% of strains
Candida albicans [2] = assay: MFC determination; type: cell-based; conditions: for MFC Range: in µg/mL; for MFC50: kills 50% of strains; for MFC90: kills 90% of strains
C. krusei strains = assay: MIC testing (CLSI M27-A3); type: cell-based; conditions: for MIC Range: C. krusei strains, in µg/mL; for MIC50 / MIC90: C. krusei; for MIC50: inhibits 50% of strains; for MIC90: inhibits 90% of strains
C. parapsilosis [3] = assay: MIC testing (CLSI M27-A3); type: cell-based; design: MIC: unit not given beside the values; conditions: for MIC50 / MIC90: C. parapsilosis; for MIC50: inhibits 50% of strains; for MIC90: inhibits 90% of strains
C. parapsilosis [4] = assay: MFC determination; type: cell-based; conditions: for MFC Range: C. parapsilosis strains; for MFC50 / MFC90: C. parapsilosis; for MFC50: kills 50% of strains; for MFC90: kills 90% of strains
C. tropicalis = assay: MFC determination; type: cell-based; conditions: for MFC Range: C. tropicalis strains, in µg/mL; for MFC50 / MFC90: C. tropicalis; for MFC50: kills 50% of strains; for MFC90: kills 90% of strains
Cr. neoformans strains = assay: MFC determination; type: cell-based, Cryptococcus neoformans; conditions: for MFC Range: Cr. neoformans strains, in µg/mL; for MFC50 / MFC90: Cr. neoformans; for MFC50: kills 50% of strains; for MFC90: kills 90% of strains
[5] = system: individual Aspergillus spp. (Table 12, species not named); assay: MIC testing (CLSI M38-A2), Table 12; type: cell-based; conditions: Aspergillus sp. of Table 12, caspofungin read as MEC; for MIC50: inhibits 50% of strains; for MIC90: inhibits 90% of strains
[6] = system: individual Aspergillus spp. (Table 12, species not named); assay: MFC determination, Table 12; type: cell-based; conditions: Aspergillus sp. of Table 12; for MFC50: kills 50% of strains; for MFC90: kills 90% of strains
[7] = system: individual Aspergillus spp. (Table 13, species not given); assay: MIC testing (CLSI M38-A2), Table 13; type: cell-based; conditions: Aspergillus sp. of Table 13, caspofungin read as MEC; for MIC Range: in µg/mL; for MIC50: inhibits 50% of strains; for MIC90: inhibits 90% of strains
[8] = system: individual Aspergillus spp. (Table 15, species not named); assay: MIC testing (CLSI M38-A2), Table 15; type: cell-based; conditions: Aspergillus sp. of Table 15, caspofungin read as MEC; for MIC50: inhibits 50% of strains; for MIC90: inhibits 90% of strains
[9] = system: individual Aspergillus spp. (Table 15, species not named); assay: MFC determination, Table 15; type: cell-based; conditions: Aspergillus sp. of Table 15; for MFC50: kills 50% of strains; for MFC90: kills 90% of strains
[10] = system: all Aspergillus strains tested; assay: MIC testing (CLSI M38-A2), summary; type: cell-based; conditions: caspofungin read as MEC; for MIC50: inhibits 50% of strains; for MIC90: inhibits 90% of strains
[11] = system: all Aspergillus strains tested; assay: MFC determination, summary; type: cell-based; conditions: for MFC50: kills 50% of strains; for MFC90: kills 90% of strains
Fusarium strains = assay: MFC determination, Table 17; type: cell-based, Fusarium spp.; conditions: Fusarium strains (Table 17); for MFC Range: in µg/mL; for MFC50: kills 50% of strains; for MFC90: kills 90% of strains
[12] = system: Fusarium strains (Table 18); assay: MIC testing (CLSI M38-A2), Table 18; type: cell-based, Fusarium spp.; conditions: for MIC50: inhibits 50% of strains; for MIC90: inhibits 90% of strains
Penicillium strains [13] = assay: MIC testing (CLSI M38-A2); type: cell-based, Penicillium spp.; conditions: for MIC50 / MIC90: Penicillium; for MIC50: inhibits 50% of strains; for MIC90: inhibits 90% of strains
Penicillium strains [14] = assay: MFC determination; type: cell-based, Penicillium spp.; conditions: for MFC50: kills 50% of strains; for MFC90: kills 90% of strains
C. albicans SC5314 = assay: In vitro activity (MFC) against the infecting strain, Example 18; type: cell-based, Candida albicans
A. fumigatus AF91 [15] = assay: In vitro activity (MIC) against the infecting strain, Example 17; type: cell-based, Aspergillus fumigatus
Method: Minimum Inhibitory Concentration: MIC testing was performed according to the Clinical and Laboratory Standards Institute (CLSI) M27-A3 and M38-A2 standards for the susceptibility testing of yeasts and filamentous fungi, respectively (Cryptococcus isolates were incubated for 72 h). For yeast strains, the incubation temperature and time were 35° C. and 24-48 h, respectively, and the inoculum size was 0.5-2.5×10^3 CFU/ml. For filamentous strains, the inoculum size was 0.4-5×10^4 CFU/ml, and the incubation time was strain and drug specific. RPMI 1640 was the test medium throughout, with the exception of the use of YNB for Cryptococcus. Inhibition endpoints for compound 1A were recorded at 50% and 100% after both 24 h and 48 h incubation; caspofungin results against Aspergillus strains were read as minimum effective concentrations (MEC), the lowest concentration that leads to small, rounded, compact growth as compared to the confluent growth of the control.

A. fumigatus AF91 [16] = assay: In vitro activity (MFC) against the infecting strain, Example 17; type: cell-based, Aspergillus fumigatus
Method: Minimum Fungicidal Concentration: MFC determinations were performed according to the modifications previously described by Canton et al., Diagn. Microbiol. Infect. Dis., 45:203-206, 2003, and Ghannoum and Isham, Infectious Diseases in Clinical Practice, 15(4):250-253, 2007.
Specifically, the total contents of each clear well from the MIC assay were subcultured onto potato dextrose agar. To avoid antifungal carryover, the aliquots were allowed to soak into the agar and then were streaked for isolation once dry, thus removing the cells from the drug source. Fungicidal activity is defined as ≥99.9% reduction in the number of colony forming units (CFU)/ml from the starting inoculum count, while fungistatic activity is defined as <99.9% reduction. […] MIC and MFC values are considered to be equivalent if they are within 2 dilutions.

[17] = Fluconazole-susceptible C. albicans n = 13
[18] = individual C. albicans strain with elevated MICs to non-polyene comparators (Table 22), listed as Flu
[19] = Fluconazole-resistant C. albicans n = 7

OC(Cn1cncn1)(Cn1cncn1)c1ccc(F)cc1F [Fluconazole, fluconazole]
MIC Range (Candida albicans [1]; [17]): 0.125-0.5
MIC50 (Candida albicans [1]; [17]): 0.25 µg/mL (≈ 0.816 µM)
MIC90 (Candida albicans [1]; [17]): 0.25 µg/mL (≈ 0.816 µM)
MIC (Candida albicans [1]; [18]): 32 (2×) and >32 (4×) and >64
MFC Range (Candida albicans [2]; [19]): >32
MFC50 (Candida albicans [2]; [17]): > 32 µg/mL
MFC90 (Candida albicans [2]; [17]): > 32 µg/mL
MFC (Candida albicans [2]; [18]): >32 (6×) and >64
MIC Range (C. krusei strains): 2-32
MIC50 (C. krusei strains): 16 µg/mL (≈ 52.2 µM)
MIC90 (C. krusei strains): 32 µg/mL (≈ 104 µM)
MIC (C. krusei strains; individual C. krusei strain with elevated MICs to non-polyene comparators (Table 22)): 16 µg/mL (≈ 52.2 µM)
MIC50 (C. parapsilosis [3]): 0.5 µg/mL (≈ 1.63 µM)
MIC90 (C. parapsilosis [3]): 0.5 µg/mL (≈ 1.63 µM)
MIC (C. parapsilosis [3]; individual C. parapsilosis strain with elevated MICs to non-polyene comparators (Table 22), listed as Flu, in µg/mL): 0.25 and 0.5 and 1
MFC Range (C. parapsilosis [4]; in µg/mL): >64
MFC50 (C. parapsilosis [4]): > 64 µg/mL
MFC90 (C. parapsilosis [4]): > 64 µg/mL
MFC (C. parapsilosis [4]; individual C. parapsilosis strain with elevated MICs to non-polyene comparators (Table 22), in µg/mL): >64
MFC Range (C. tropicalis): >64
MFC50 (C. tropicalis): > 64 µg/mL
MFC90 (C. tropicalis): > 64 µg/mL
MFC Range (Cr. neoformans strains): 2
MFC50 (Cr. neoformans strains): > 64 µg/mL
MFC90 (Cr. neoformans strains): > 64 µg/mL
MIC50 [5]: > 64 µg/mL
MIC90 [5]: > 64 µg/mL
MFC Range [6]: > 64 µg/mL
MFC50 [6]: > 64 µg/mL
MFC90 [6]: > 64 µg/mL
MIC Range [7]: 64
MIC50 [7]: 64 µg/mL (≈ 209 µM)
MIC90 [7]: 64 µg/mL (≈ 209 µM)
MIC50 [8]: 64 µg/mL (≈ 209 µM)
MIC90 [8]: > 64 µg/mL
MFC Range [9]: > 64 µg/mL
MFC50 [9]: > 64 µg/mL
MFC90 [9]: > 64 µg/mL
MIC50 [10]: > 64 µg/mL
MIC90 [10]: > 64 µg/mL
MFC Range [11]: > 64 µg/mL
MFC50 [11]: > 64 µg/mL
MFC90 [11]: > 64 µg/mL
MFC Range (Fusarium strains): >64
MFC50 (Fusarium strains): > 64 µg/mL
MFC90 (Fusarium strains): > 64 µg/mL
MIC Range ([12]; in µg/mL): >32
MIC50 [12]: > 32 µg/mL
MIC90 [12]: > 32 µg/mL
MIC50 (Penicillium strains [13]): > 64 µg/mL
MIC90 (Penicillium strains [13]): > 64 µg/mL
MFC50 (Penicillium strains [14]): > 64 µg/mL
MFC90 (Penicillium strains [14]): > 64 µg/mL
MFC (C. albicans SC5314; Candida albicans, read-out: MFC): > 64 µg/mL

C[C@@H]1[C@H](O)[C@@H](C)/C=C/C=C/C=C/C=C/C=C/C=C/C=C/[C@H](O[C@@H]2O[C@H](C)[C@@H](O)[C@H](N)[C@@H]2O)C[C@@H]2O[C@](O)(C[C@@H](O)C[C@@H](O)[C@H](O)CC[C@@H](O)C[C@@H](O)CC(=O)O[C@H]1C)C[C@H](O)[C@H]2C(=O)O [Amphotericin B]
MIC Range (Candida albicans [1]; [19]): 0.25-1
MIC Range (Candida albicans [1]; [17]): 0.125-0.5
MIC50 (Candida albicans [1]; [17]): 0.25 µg/mL (≈ 0.271 µM)
MIC90 (Candida albicans [1]; [17]): 0.5 µg/mL (≈ 0.541 µM)
MFC Range (Candida albicans [2]; [19]): 0.5-1
MFC Range (Candida albicans [2]; [17]): 0.125-1
MFC50 (Candida albicans [2]; [17]): 0.25 µg/mL (≈ 0.271 µM)
MFC90 (Candida albicans [2]; [17]): 1 µg/mL (≈ 1.08 µM)
MIC Range (C. krusei strains): 0.5-1
MIC50 (C. krusei strains): 0.5 µg/mL (≈ 0.541 µM)
MIC90 (C. krusei strains): 1 µg/mL (≈ 1.08 µM)
MIC Range (C. parapsilosis [3]; C. parapsilosis strains, in µg/mL): 0.125-1
MIC50 (C. parapsilosis [3]): 0.25 µg/mL (≈ 0.271 µM)
MIC90 (C. parapsilosis [3]): 0.5 µg/mL (≈ 0.541 µM)
MFC Range (C. parapsilosis [4]; in µg/mL): 0.5-2
MFC50 (C. parapsilosis [4]): 1 µg/mL (≈ 1.08 µM)
MFC90 (C. parapsilosis [4]): 1 µg/mL (≈ 1.08 µM)
MFC Range (C. tropicalis): 0.25-1
MFC50 (C. tropicalis): 0.5 µg/mL (≈ 0.541 µM)
MFC90 (C. tropicalis): 1 µg/mL (≈ 1.08 µM)
MFC Range (Cr. neoformans strains): 0.25-2
MFC50 (Cr. neoformans strains): 0.5 µg/mL (≈ 0.541 µM)
MFC90 (Cr. neoformans strains): 1 µg/mL (≈ 1.08 µM)
MIC Range ([5]; in µg/mL): 1-8
MIC50 [5]: 8 µg/mL (≈ 8.66 µM)
MIC90 [5]: 8 µg/mL (≈ 8.66 µM)
MFC50 [6]: 8 µg/mL (≈ 8.66 µM)
MFC90 [6]: > 32 µg/mL
MIC Range [7]: 1-2
MIC50 [7]: 1 µg/mL (≈ 1.08 µM)
MIC90 [7]: 2 µg/mL (≈ 2.16 µM)
MIC Range ([8]; in µg/mL): 0.25-16
MIC50 [8]: 8 µg/mL (≈ 8.66 µM)
MIC90 [8]: 8 µg/mL (≈ 8.66 µM)
MFC50 [9]: > 32 µg/mL
MFC90 [9]: > 32 µg/mL
MIC Range ([10]; in µg/mL): 0.25-16
MIC50 [10]: 1 µg/mL (≈ 1.08 µM)
MIC90 [10]: 8 µg/mL (≈ 8.66 µM)
MFC50 [11]: > 8 µg/mL
MFC90 [11]: > 8 µg/mL
MFC Range (Fusarium strains): 1-4
MFC50 (Fusarium strains): 2 µg/mL (≈ 2.16 µM)
MFC90 (Fusarium strains): 2 µg/mL (≈ 2.16 µM)
MIC50 [12]: 0.5 µg/mL (≈ 0.541 µM)
MIC90 [12]: 2 µg/mL (≈ 2.16 µM)
MIC Range (Penicillium strains [13]; Penicillium strains, in µg/mL): 0.5-4
MIC50 (Penicillium strains [13]): 1 µg/mL (≈ 1.08 µM)
MIC90 (Penicillium strains [13]): 2 µg/mL (≈ 2.16 µM)
MFC50 (Penicillium strains [14]): 4 µg/mL (≈ 4.33 µM)
MFC90 (Penicillium strains [14]): > 8 µg/mL
MIC (A. fumigatus AF91 [15]): 2 µg/mL (≈ 2.16 µM)
MFC (A. fumigatus AF91 [16]): 16 µg/mL (≈ 17.3 µM)
MFC (C. albicans SC5314): 0.25 µg/mL (≈ 0.271 µM)

— US20230138395A1, “PHARMACEUTICAL COMPOSITIONS OF A THERAPEUTIC POLYENE MACROLIDE AND METHODS OF THEIR USE” (priority 2020, published 2023)
